From PubChem BioAssay (NCI)
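The compound was tested at five concentrations on cells cultured in 96-well plates, with a 48-hour exposure period. Definition used: TGI = concentration required for complete inhibition of growth.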

Experiments:
Experiment in all cases: NCI-60 cell line screen, 48 h
SK-MEL-28 melanoma = tested on: SK-MEL-28 melanoma
HOP-62 NSCLC = tested on: HOP-62 NSCLC
SNB-19 CNS = tested on: SNB-19 CNS
A498 renal = tested on: A498 renal
OVCAR-8 ovarian = tested on: OVCAR-8 ovarian
OVCAR-5 ovarian = tested on: OVCAR-5 ovarian
MALME-3M melanoma = tested on: MALME-3M melanoma
SW-620 colon = tested on: SW-620 colon
HL-60(TB) leukemia = tested on: HL-60(TB) leukemia
ACHN renal = tested on: ACHN renal
UACC-62 melanoma = tested on: UACC-62 melanoma
CAKI-1 renal = tested on: CAKI-1 renal
HOP-92 NSCLC = tested on: HOP-92 NSCLC
MOLT-4 leukemia = tested on: MOLT-4 leukemia
SNB-75 CNS = tested on: SNB-75 CNS
NCI-H23 lung = tested on: NCI-H23 lung
LXFL 529 NSCLC = tested on: LXFL 529 NSCLC
OVCAR-3 ovarian = tested on: OVCAR-3 ovarian
A549 NSCLC = tested on: A549 NSCLC
CCRF-CEM leukemia = tested on: CCRF-CEM leukemia
OVCAR-4 ovarian = tested on: OVCAR-4 ovarian
UO-31 renal = tested on: UO-31 renal
DLD-1 colon = tested on: DLD-1 colon
SF-295 CNS = tested on: SF-295 CNS
DMS 114 small cell lung = tested on: DMS 114 small cell lung
RPMI-8226 leukemia = tested on: RPMI-8226 leukemia
K-562 leukemia = tested on: K-562 leukemia
NCI-H460 lung = tested on: NCI-H460 lung
XF 498 CNS = tested on: XF 498 CNS
HT29 colon = tested on: HT29 colon
COLO 205 colon = tested on: COLO 205 colon
LOX IMVI melanoma = tested on: LOX IMVI melanoma
SF-539 CNS = tested on: SF-539 CNS
HCT-15 colon = tested on: HCT-15 colon
EKVX NSCLC = tested on: EKVX NSCLC
SN12C renal = tested on: SN12C renal
M14 melanoma = tested on: M14 melanoma
HCC-2998 colon = tested on: HCC-2998 colon
SNB-78 CNS = tested on: SNB-78 CNS
SK-OV-3 ovarian = tested on: SK-OV-3 ovarian
KM12 colon = tested on: KM12 colon
SF-268 CNS = tested on: SF-268 CNS
SK-MEL-2 melanoma = tested on: SK-MEL-2 melanoma
786-0 renal = tested on: 786-0 renal
M19-MEL melanoma = tested on: M19-MEL melanoma
U251 CNS = tested on: U251 CNS
TK-10 renal = tested on: TK-10 renal
NCI-H226 lung = tested on: NCI-H226 lung
IGROV1 ovarian = tested on: IGROV1 ovarian
DMS 273 small cell lung = tested on: DMS 273 small cell lung
HOP-18 NSCLC = tested on: HOP-18 NSCLC
NCI-H522 lung = tested on: NCI-H522 lung
MDA-MB-231 breast = tested on: MDA-MB-231 breast
MDA-MB-435 = tested on: MDA-MB-435
BT-549 breast = tested on: BT-549 breast
T-47D breast = tested on: T-47D breast
SK-MEL-5 melanoma = tested on: SK-MEL-5 melanoma
HS 578T breast = tested on: HS 578T breast
HCT-116 colon = tested on: HCT-116 colon
RXF 393 renal = tested on: RXF 393 renal
MCF7 breast = tested on: MCF7 breast
KM20L2 colon = tested on: KM20L2 colon
DU-145 prostate = tested on: DU-145 prostate
SR leukemia = tested on: SR leukemia
UACC-257 melanoma = tested on: UACC-257 melanoma
PC-3 prostate = tested on: PC-3 prostate

Clc1cc2nc[nH]c2cc1Cl
TGI (SK-MEL-28 melanoma): > 100 µM
TGI (HOP-62 NSCLC): > 100 µM
TGI (SNB-19 CNS): > 100 µM
TGI (A498 renal): > 100 µM
TGI (OVCAR-8 ovarian): > 100 µM
TGI (OVCAR-5 ovarian): > 100 µM
TGI (MALME-3M melanoma): > 100 µM
TGI (SW-620 colon): > 100 µM
TGI (HL-60(TB) leukemia): > 100 µM
TGI (ACHN renal): > 100 µM
TGI (UACC-62 melanoma): > 100 µM
TGI (CAKI-1 renal): > 100 µM
TGI (HOP-92 NSCLC): > 100 µM
TGI (MOLT-4 leukemia): > 100 µM
TGI (SNB-75 CNS): 83.9 µM
TGI (NCI-H23 lung): > 100 µM
TGI (LXFL 529 NSCLC): > 100 µM
TGI (OVCAR-3 ovarian): > 100 µM
TGI (A549 NSCLC): > 100 µM
TGI (CCRF-CEM leukemia): > 100 µM
TGI (OVCAR-4 ovarian): > 100 µM
TGI (UO-31 renal): > 100 µM
TGI (DLD-1 colon): > 100 µM
TGI (SF-295 CNS): > 100 µM
TGI (DMS 114 small cell lung): > 100 µM
TGI (RPMI-8226 leukemia): > 100 µM
TGI (K-562 leukemia): > 100 µM
TGI (NCI-H460 lung): > 100 µM
TGI (XF 498 CNS): > 100 µM
TGI (HT29 colon): > 100 µM
TGI (COLO 205 colon): > 100 µM
TGI (LOX IMVI melanoma): > 100 µM
TGI (SF-539 CNS): > 100 µM
TGI (HCT-15 colon): > 100 µM
TGI (EKVX NSCLC): > 100 µM
TGI (SN12C renal): > 100 µM
TGI (M14 melanoma): > 100 µM
TGI (HCC-2998 colon): > 100 µM
TGI (SNB-78 CNS): > 100 µM
TGI (SK-OV-3 ovarian): > 100 µM
TGI (KM12 colon): > 100 µM
TGI (SF-268 CNS): > 100 µM
TGI (SK-MEL-2 melanoma): > 100 µM
TGI (786-0 renal): > 100 µM
TGI (M19-MEL melanoma): > 100 µM
TGI (U251 CNS): > 100 µM
TGI (TK-10 renal): > 100 µM
TGI (NCI-H226 lung): > 100 µM
TGI (IGROV1 ovarian): > 100 µM
TGI (DMS 273 small cell lung): > 100 µM
TGI (HOP-18 NSCLC): > 100 µM

NCc1ccc(O)c(O)c1O
TGI (SK-MEL-28 melanoma): > 100 µM
TGI (HOP-62 NSCLC): > 73.9 µM
TGI (SNB-19 CNS): > 97.3 µM
TGI (A498 renal): > 100 µM
TGI (NCI-H522 lung): > 90.9 µM
TGI (OVCAR-8 ovarian): 49.1 µM
TGI (OVCAR-5 ovarian): 40.5 µM
TGI (MALME-3M melanoma): > 100 µM
TGI (SW-620 colon): 43.3 µM
TGI (MDA-MB-231 breast): 43.5 µM
TGI (HL-60(TB) leukemia): 59.1 µM
TGI (ACHN renal): 55.4 µM
TGI (UACC-62 melanoma): > 67.3 µM
TGI (CAKI-1 renal): > 46.4 µM
TGI (HOP-92 NSCLC): > 96 µM
TGI (MOLT-4 leukemia): 64.9 µM
TGI (SNB-75 CNS): > 100 µM
TGI (NCI-H23 lung): > 67.3 µM
TGI (MDA-MB-435): 32.7 µM
TGI (LXFL 529 NSCLC): 30.6 µM
TGI (OVCAR-3 ovarian): 47 µM
TGI (A549 NSCLC): 63.2 µM
TGI (BT-549 breast): 34.2 µM
TGI (CCRF-CEM leukemia): 56.6 µM
TGI (OVCAR-4 ovarian): 41 µM
TGI (UO-31 renal): > 100 µM
TGI (DLD-1 colon): 37.2 µM
TGI (SF-295 CNS): > 57.7 µM
TGI (DMS 114 small cell lung): 42.8 µM
TGI (RPMI-8226 leukemia): 64.8 µM
TGI (T-47D breast): 71.6 µM
TGI (K-562 leukemia): 60.6 µM
TGI (SK-MEL-5 melanoma): 56 µM
TGI (HS 578T breast): 54.9 µM
TGI (NCI-H460 lung): 34 µM
TGI (XF 498 CNS): 56.4 µM
TGI (HT29 colon): 29.2 µM
TGI (COLO 205 colon): 35.5 µM
TGI (HCT-116 colon): 30.5 µM
TGI (LOX IMVI melanoma): 32 µM
TGI (SF-539 CNS): > 62.5 µM
TGI (HCT-15 colon): 47.7 µM
TGI (EKVX NSCLC): > 100 µM
TGI (RXF 393 renal): > 81.1 µM
TGI (SN12C renal): 37.3 µM
TGI (M14 melanoma): 27.7 µM
TGI (MCF7 breast): 36.3 µM
TGI (KM20L2 colon): > 80.9 µM
TGI (HCC-2998 colon): > 81.7 µM
TGI (DU-145 prostate): > 100 µM
TGI (SNB-78 CNS): > 100 µM
TGI (SK-OV-3 ovarian): > 100 µM
TGI (KM12 colon): 49 µM
TGI (SF-268 CNS): 61.6 µM
TGI (SK-MEL-2 melanoma): 57.2 µM
TGI (786-0 renal): 30.1 µM
TGI (M19-MEL melanoma): 26.9 µM
TGI (U251 CNS): 52.6 µM
TGI (TK-10 renal): > 100 µM
TGI (NCI-H226 lung): > 66.7 µM
TGI (SR leukemia): 62 µM
TGI (UACC-257 melanoma): > 75.6 µM
TGI (IGROV1 ovarian): > 86.3 µM
TGI (DMS 273 small cell lung): 31 µM
TGI (PC-3 prostate): > 100 µM
TGI (HOP-18 NSCLC): > 100 µM

O=S(Cc1cnc2ccccc2c1)c1nc2ccccc2nc1-c1cccs1 (stereo unspecified)
TGI (SK-MEL-28 melanoma): 34.9 µM
TGI (SNB-19 CNS): 43.6 µM
TGI (OVCAR-8 ovarian): 51.7 µM
TGI (OVCAR-5 ovarian): 28.5 µM
TGI (MALME-3M melanoma): 37.7 µM
TGI (HL-60(TB) leukemia): 72.8 µM
TGI (ACHN renal): 26.4 µM
TGI (HOP-92 NSCLC): 25 µM
TGI (MOLT-4 leukemia): > 100 µM
TGI (SNB-75 CNS): 39.3 µM
TGI (NCI-H23 lung): 35.7 µM
TGI (LXFL 529 NSCLC): 20.8 µM
TGI (OVCAR-3 ovarian): 34.7 µM
TGI (A549 NSCLC): 48.6 µM
TGI (CCRF-CEM leukemia): > 100 µM
TGI (OVCAR-4 ovarian): 24.6 µM
TGI (UO-31 renal): 28.3 µM
TGI (SF-295 CNS): 61 µM
TGI (DMS 114 small cell lung): 25.8 µM
TGI (RPMI-8226 leukemia): > 100 µM
TGI (K-562 leukemia): > 100 µM
TGI (XF 498 CNS): 16.9 µM
TGI (HT29 colon): 37.1 µM
TGI (COLO 205 colon): 42 µM
TGI (HCT-116 colon): 22.4 µM
TGI (SF-539 CNS): 32.8 µM
TGI (EKVX NSCLC): 25 µM
TGI (SN12C renal): 32.8 µM
TGI (M14 melanoma): 32.2 µM
TGI (SNB-78 CNS): 50.7 µM
TGI (SK-OV-3 ovarian): 73 µM
TGI (SF-268 CNS): 39.6 µM
TGI (786-0 renal): 27.3 µM
TGI (U251 CNS): 33.5 µM
TGI (NCI-H226 lung): 11.6 µM
TGI (UACC-257 melanoma): 31.2 µM
TGI (IGROV1 ovarian): 33.4 µM
TGI (DMS 273 small cell lung): 34.9 µM
TGI (HOP-18 NSCLC): 31.7 µM

COc1ccc(/C=C/C(=O)c2c(-c3ccccc3)nn(C)c(=O)c2N2CCCC2)cc1
TGI (SK-MEL-28 melanoma): > 100 µM
TGI (A498 renal): > 100 µM
TGI (OVCAR-8 ovarian): > 100 µM
TGI (SW-620 colon): > 100 µM
TGI (HL-60(TB) leukemia): > 100 µM
TGI (ACHN renal): > 100 µM
TGI (UACC-62 melanoma): > 100 µM
TGI (HOP-92 NSCLC): 37.5 µM
TGI (MOLT-4 leukemia): > 100 µM
TGI (LXFL 529 NSCLC): > 100 µM
TGI (A549 NSCLC): > 100 µM
TGI (CCRF-CEM leukemia): > 100 µM
TGI (UO-31 renal): > 100 µM
TGI (DLD-1 colon): > 100 µM
TGI (SF-295 CNS): > 100 µM
TGI (DMS 114 small cell lung): > 100 µM
TGI (RPMI-8226 leukemia): > 100 µM
TGI (K-562 leukemia): > 100 µM
TGI (SK-MEL-5 melanoma): > 100 µM
TGI (NCI-H460 lung): > 100 µM
TGI (XF 498 CNS): > 100 µM
TGI (HT29 colon): > 100 µM
TGI (COLO 205 colon): > 100 µM
TGI (HCT-116 colon): > 100 µM
TGI (LOX IMVI melanoma): > 100 µM
TGI (SF-539 CNS): > 100 µM
TGI (HCT-15 colon): > 100 µM
TGI (EKVX NSCLC): > 100 µM
TGI (SN12C renal): > 100 µM
TGI (M14 melanoma): > 100 µM
TGI (KM20L2 colon): > 100 µM
TGI (SK-OV-3 ovarian): > 100 µM
TGI (SF-268 CNS): > 100 µM
TGI (786-0 renal): > 100 µM
TGI (M19-MEL melanoma): > 100 µM
TGI (U251 CNS): > 100 µM
TGI (TK-10 renal): > 100 µM
TGI (IGROV1 ovarian): > 100 µM
TGI (DMS 273 small cell lung): > 100 µM
TGI (HOP-18 NSCLC): > 100 µM
